Assay results reported in US11478496B2, “Treatments of prostate cancer” (THE FLORIDA INTERNATIONAL UNIVERSITY BOARD OF TRUSTEES, priority 2020, dated 2022).

Columns and labels:
[1] = test system: BER reconstituted with purified Pol β, FEN1, and LIG I; assay: Secondary gel-based BER assay reconstituted with purified core BER enzymes; type: biochemical; conditions: 10 μM compound, THF substrate
Procedure: The secondary screening assay was performed as described below in the “Materials and Methods” section. Lane 1 represents the substrate only. Lane 2 indicates the reaction mixture with 5 nM APE1. Lanes 3 and 4 correspond to the reaction mixture with 5 nM APE1, 10 nM pol β, 10 nM FEN1 and 20 nM LIG I in the absence and presence of dimethylsulfoxide (DMSO). Lanes 5 through 19 correspond to the reaction mixture with 5 nM APE1, 10 nM pol β, 10 nM FEN1 and 20 nM LIG I in the presence of indicated compounds. The experiments were repeated at least three times. A representative gel is illustrated.
The hit compounds were subject to secondary assays to determine their ability to reduce the BER capacity when reconstituted with purified core BER enzymes, as well as their inhibitory effects on individual BER enzymes including pol FEN1 and LIG I. The effect of hit compounds on BER capacity and BER enzymes was examined using a denaturing sequencing gel-based assay. 10 μM hit compounds were incubated with 10 nM pol β, 10 nM FEN1 and 20 nM LIG I in BER reaction buffer containing 50 mM Tris-HCl (pH 7.5), 50 mM KCl, 0.1 mM EDTA, 0.1 mg/ml bovine serum albumin, and 0.01% Nonidet P-40 in the presence of 5 mM Mg^2+ and 2 mM ATP. The compounds were initially preincubated with a BER enzyme at varying concentrations for 1 h with rotation. This was followed by the addition of 25 nM ^32P-labeled substrate containing an abasic site, which was precut with 25 or 50 nM APEI. The reaction mixture (20 μL) was incubated at 37° C. for 30 min, and the reaction was terminated by 50 mM EDTA. Substrates, products, and unrepaired BER intermediates were separated by 15% urea-denaturing sequencing gel and detected by a Pharos FX Plus PhosphorImager (Bio-Rad, Hercules, Calif.).
Among the 26 identified compounds, nine were DNA intercalators or inhibitors of human DNA topoisomerases and were excluded from further studies. Thus, […] FDA approved drugs were selected for further testing. To further confirm the inhibitory effects of the lead compounds on BER, the effects of the compounds on BER reactions reconstituted with purified BER core enzymes were initially determined.

RWPE1 cells [2] = assay: Cell Titer Glo cell viability assay, RWPE1; type: cell-based; conditions: 10 μM; after 24 h and 48 h; serum free medium with EGF and BPE
Procedure: FIGS. 4A-4B show cellular toxicity of lead compounds in nonmalignant androgen independent prostate-derived cell lines. (4A) PNT1A cells were plated in a 96-well plate at 1×10^4 cell/well in the presence of FBS or CSS. Cells were allowed to attach overnight and were treated with either vehicle (DMSO) or 10 μM of indicated compound. At 24 and 48 h, cellular viability was compared using the Cell Titer Glo Luminescent Cell Viability kit. (4B) RWPE1 cells were plated in a 96-well plate at 1×10^4 cells/well using the specified serum free media. Cells were allowed to attach overnight and treated with 10 μM of indicated compound.
Cell viability was determined using the Cell Titer Glo Cell Viability Assay (Promega, Madison, Wis.), as recommended by manufacturer. All experiments were performed in quadruplicate.
Next, whether the same concentration of compounds decreases the viability of the AR negative and nonmalignant prostate derived cells, PNT1A and RWPE1, was tested.

RWPE1 cells [3] = assay: RTCA impedance proliferation assay, RWPE1; type: cell-based; conditions: 10 μM; serum free medium
Procedure: (6A-6B) PNT1A cells were plated onto xCelligence E-plates at 5×10^4 cells per well in media supplemented with 10% FBS (6A) or CSS (6B). Cells were allowed to attach overnight and treated with vehicle (DMSO) or 10 μM of indicated compounds. Cellular impedance was monitored continuously with 30 min intervals. (6C) RWPE1 cells were plated at 5×10^4 cells per well in serum free medium supplemented with Epidermal Growth Factor (EGF) and Bovine Pituitary Extract ([…]) onto E-plates and treated with 10 μM of indicated compounds as indicated. […] Proliferation assays were done using Roche DP Real Time Cell Analyzer (RTCA), as described by the manufacturer. Background impedance was established after incubating E-plates (Acea Biosciences, San Diego, Calif.) with 50 μL media at room temperature for 30 min and placed in RTCA. Cells were then seeded in 100 μL per well. Cells attached overnight and then treated. During attachment stage and after treatment impedance was measured every 30 min. Impedance is represented by cell index and is calculated as follows: CI=(Zi−Zo)/15Ω where Zi is impedance at an individual time point, and Zo is the background impedance. Average CI was calculated from four wells per treatment at each time point and normalized to the impedance immediately after compound addition.

Structure (SMILES)	BER capacity and production of the BER repair product [1]	RWPE1 cell viability (RWPE1 cells [2])	RWPE1 proliferation (RWPE1 cells [3])
C=C1/C(=C\C=C2/CCC[C@]3(C)[C@@H]([C@H](C)/C=C/[C@@H](O)C4CC4)CC[C@@H]23)C[C@@H](O)C[C@@H]1O [calcipotriene]	significantly reduced BER capacity	significantly decreased	slightly inhibited
CC(C)(O/N=C(\C(=O)N[C@@H]1C(=O)N2C(C(=O)[O-])=C(C[n+]3ccccc3)CS[C@H]12)c1csc(N)n1)C(=O)O [ceftazidime]	significantly reduced BER capacity		
C[C@@H]1[C@H](O)[C@@H](C)/C=C/C=C/CC/C=C/C=C/C=C/C=C/C(O[C@H]2O[C@H](C)[C@@H](O)[C@H](N)[C@@H]2O)CC2O[C@](O)(CC(O)C(O)CCC(O)CC(O)CC(O)CC(=O)O[C@H]1C)CC(O)C2C(=O)O (stereo partly shown) [nystatin]	significantly reduced BER capacity		
CC(=O)Oc1cc2c(s1)CCN(C(C(=O)C1CC1)c1ccccc1F)C2 (stereo not shown) [prasugrel]	significantly reduced BER capacity	significantly decreased	
